Data from patent US12187816B2, “Macrocyclic compounds and methods of use thereof” (Genentech, Inc., priority 2020, dated 2025).
Starred links: 1 amine or outer side, 2 acyl side, 3 side chain; linkers in the order of their positions; H or OH if unused. Positions of bridges follow the written chain, without caps; N, C: chain ends. Non-standard residues stand in square brackets, D forms with d. Residues, ends and D or L forms follow the SMILES beside them. *: point of attachment. X14 = Cn1cc2c3c(c[nH]c3c1=O)CN(c1ncc(F)cc1F)c1cc(C(=O)*)c(CS(C)(=O)=O)cc1-2; X11 = CC(=O)N1c2ccc(-c3ccc(C(=O)*)cc3)cc2[C@H](Nc2ccc(Cl)cc2)C[C@@H]1C; JQ1acid = Cc1sc2c(c1C)C(c1ccc(Cl)cc1)=N[C@@H](CC(=O)*)c1nnc(C)n1-2; dPhg(4-(4-Me-thiazol-5-yl)) = Cc1ncsc1-c1ccc([C@@H](N)C(=O)O)cc1; Bip = N[C@@H](Cc1ccc(-c2ccccc2)cc1)C(=O)O; X5 = O=C([C@@H](Cc1ccc(Br)s1)N[*:1])[*:2]; X7 = O=C([C@H](Cc1ccc(Br)s1)N[*:1])[*:2]; X4 = O=C([C@H]1CN([*:3])CCN1[*:1])[*:2]; cisHyp = O=C(O)[C@@H]1C[C@H](O)CN1; Hyp = O=C(O)[C@@H]1C[C@@H](O)CN1; Tle = CC(C)(C)[C@H](N)C(=O)O; dDap = NC[C@@H](N)C(=O)O

Each compound was assayed against T1, BRD4 (Homo sapiens, UniProt O60885) (assay: BRD4 degradation assay in EOL1 cells (immunofluorescence imaging)). Conditions: EoL-1 eosinophilic leukemia cells, 4 hours treatment, nuclear BRD4 immunofluorescence.
T1 construct: Mean 488 intensity of BRD4 quantitated in nuclear region; endogenous in cells; host or cells: EoL-1 eosinophilic leukemia cells
Type: cell-based
Description: BRD4 Degradation Assay in EOL1 Cells
EoL-1 eosinophilic leukemia cells were seeded on day 1 at a density of 45,000 cells per well in Corning PureCoat Amine Microplates, (Corning #354719) in 45 μL/well of assay media (RPMI, 10% FBS, containing L-glutamine). After cells attached to cell plate, compounds were serially diluted ⅓ in dimethylsulfoxide (DMSO) to create 20-point dilutions across a 384 well v-bottom polypropylene microplate (Greiner #781091). 2 μL of each sample from the serial dilution was transferred to 98 μL of assay media as an intermediate dilution. 5 μL of each well of the intermediate dilution was added to 45 μL of cell plate. Columns 1, 2, 23 and 24 were treated with only 0.2% final concentration of DMSO for data normalization as “neutral controls”. After compound treatment, cell plates were stored in a 37° C. incubator for 4 hours. After 4 hours cells were fixed in 3.7% w/v final concentration of paraformaldehyde by addition of 15 μL of 16% w/v paraformaldehyde (Electron Microscopy Sciences #15710-S) directly to the 50 μL media and compound in the cell plate. Cell plate was incubated at RT for 20 minutes. Well contents were aspirated and washed with 100 μL/well PBS 3 times. 50 ul/well of phosphate Buffered Saline (PBS) (pH 7.5) containing 0.5% w/v bovine serum albumen, 0.5% w/v Triton X-100 (Block/Permeabilization Buffer) was added to each well. Samples were incubated for 20 minutes. Well contents were aspirated and washed 3 times with 100 μL/well of PBS. PBS was aspirated from the well and 50 μL per well of EoL-1 Block Buffer (PBS containing 10% Normal Goat Serum (AbCam #ab7481)) was added to each well. Plates were incubated at room temperature for 30 minutes. Block buffer was decanted from the wells. Immunofluorescence staining of BRD4 was carried out by diluting mAB Anti-BRD4 [EPR5150] antibody (Abcam 128874) 1:500 into Antibody Dilution Buffer (PBS, 2% Normal Goat Serum). 25 μL per well of BRD4 antibody diluted in buffer was added and incubated overnight at 4° C.
On day-2 samples were washed 3 times with 100 μL/well of PBS. 25 μL/well of secondary antibody solution (Goat Anti-Rabbit IgG, DyLight 488 Conjugated Highly Cross-adsorbed Thermo Fisher #35553) and Hoechst 33342 1 μg/ml diluted in Antibody Dilution Buffer) were dispensed into each well. Hoechst 33342 only was added to bottom 3 columns for data normalization as “inhibitor controls”. Samples were incubated for 2 hours at room temperature. Samples were washed 3 times with 100 μL PBS. Quantitative fluorescence imaging of BRD4 was carried out using an Opera Phenix High-Content Screening System. Fluorescent images of the samples were captured using 488 nm and 405 nm channels. Hoechst channel was used to identify nuclear region. Mean 488 intensity of BRD4 quantitated in nuclear region. Data analysis was carried out using Genedata Screener, with DMSO and no primary antibody control treated samples being used to define the 0% and 100% changes in BRD4. The dose-response log(inhibitor) vs. response used to define the inflexion point of curve (DC50) and the plateau of the maximal effect.
The individual topological polar surface area (TPSA) and cLogP values were calculated using Chemdraw v. 15.1 (PerkinElmer). Half life of the ternary VHL/BD1 and VHL/BD2 complexes, DC50 of BRD4 in EOL1 cells, topological polar surface area of a molecule (TPSA) and c log P (lipophilicity) for compounds described herein are provided in Table 3.

SMILES	DC50
Cc1sc2c(c1C)C(c1ccc(Cl)cc1)=N[C@@H](CC(=O)NC[C@H]1NC(=O)CNC(=O)[C@H](Cc3ccc(-c4ccccc4)cc3)NC(=O)[C@@H]3C[C@@H](O)CN3C(=O)[C@H](C(C)(C)C)NC(=O)CSC[C@H](C(N)=O)NC1=O)c1nnc(C)n1-2 [Compound 19] ({CH2CO}-[Tle][Hyp][Bip]G[dDap](JQ1acid)[dC]-NH2; thioether N-6)	< 20 µM
Cc1sc2c(c1C)C(c1ccc(Cl)cc1)=N[C@@H](CC(=O)NC[C@H]1NC(=O)CNC(=O)[C@H](Cc3ccc(Br)s3)NC(=O)[C@@H]3C[C@@H](O)CN3C(=O)[C@H](C(C)(C)C)NC(=O)CSC[C@H](C(N)=O)NC1=O)c1nnc(C)n1-2 [Compound 20] ({CH2CO}-[Tle][Hyp][X7]G[dDap](JQ1acid)[dC]-NH2; thioether N-6)	< 1 µM
CC(=O)N1c2ccc(-c3ccc(C(=O)NC[C@H]4NC(=O)CNC(=O)[C@@H](c5ccc(-c6scnc6C)cc5)NC(=O)[C@@H]5C[C@@H](O)CN5C(=O)[C@H](C(C)(C)C)NC(=O)CSC[C@H](C(N)=O)NC4=O)cc3)cc2[C@H](Nc2ccc(Cl)cc2)C[C@@H]1C [Compound 21] ({CH2CO}-[Tle][Hyp][dPhg(4-(4-Me-thiazol-5-yl))]G[dDap](X11)[dC]-NH2; thioether N-6)	> 20 µM
Cc1ncsc1-c1ccc([C@H]2NC(=O)[C@@H]3C[C@@H](O)CN3C(=O)[C@H](C(C)(C)C)NC(=O)CSC[C@H](C(N)=O)NC(=O)[C@@H](CNC(=O)c3cc4c(cc3CS(C)(=O)=O)-c3cn(C)c(=O)c5[nH]cc(c35)CN4c3ncc(F)cc3F)NC(=O)CNC2=O)cc1 [Compound 22] ({CH2CO}-[Tle][Hyp][dPhg(4-(4-Me-thiazol-5-yl))]G[dDap](X14)[dC]-NH2; thioether N-6)	> 20 µM
Cc1sc2c(c1C)C(c1ccc(Cl)cc1)=N[C@@H](CC(=O)NC[C@H]1NC(=O)CNC(=O)[C@@H](Cc3ccc(Br)s3)NC(=O)[C@@H]3C[C@@H](O)CN3C(=O)[C@H](C(C)(C)C)NC(=O)CSC[C@H](C(N)=O)NC1=O)c1nnc(C)n1-2 [Compound 23] ({CH2CO}-[Tle][Hyp][X5]G[dDap](JQ1acid)[dC]-NH2; thioether N-6)	< 1 µM
COc1ccc(C[C@@H]2NC(=O)[C@@H]3C[C@@H](O)CN3C(=O)[C@H](C(C)(C)C)NC(=O)CSC[C@H](C(N)=O)NC(=O)[C@@H](CNC(=O)C[C@@H]3N=C(c4ccc(Cl)cc4)c4c(sc(C)c4C)-n4c(C)nnc43)NC(=O)CNC2=O)cc1 [Compound 24] ({CH2CO}-[Tle][Hyp]Y(Me)G[dDap](JQ1acid)[dC]-NH2; thioether N-6)	> 20 µM
Cc1ncsc1-c1ccc([C@H]2NC(=O)[C@@H]3C[C@@H](O)CN3C(=O)[C@H](C(C)(C)C)NC(=O)CSC[C@H](C(N)=O)NC(=O)[C@H]3CN(C(=O)C[C@@H]4N=C(c5ccc(Cl)cc5)c5c(sc(C)c5C)-n5c(C)nnc54)CCN3C(=O)CNC2=O)cc1 [Compound 25] ({CH2CO}-[Tle][Hyp][dPhg(4-(4-Me-thiazol-5-yl))]G[X4](JQ1acid)[dC]-NH2; thioether N-6)	< 20 µM
Cc1ncsc1-c1ccc([C@H]2NC(=O)[C@@H]3C[C@@H](O)CN3C(=O)[C@H](C(C)(C)C)NC(=O)CSC[C@H](C(N)=O)NC(=O)[C@@H](CNC(=O)C[C@@H]3N=C(c4ccc(Cl)cc4)c4c(sc(C)c4C)-n4c(C)nnc43)NC(=O)[C@@H](C)NC2=O)cc1 [Compound 26] ({CH2CO}-[Tle][Hyp][dPhg(4-(4-Me-thiazol-5-yl))][dA][dDap](JQ1acid)[dC]-NH2; thioether N-6)	< 1 µM
Cc1ncsc1-c1ccc([C@H]2NC(=O)[C@@H]3C[C@H](O)CN3C(=O)[C@H](C(C)(C)C)NC(=O)CSC[C@H](C(N)=O)NC(=O)[C@@H](CNC(=O)C[C@@H]3N=C(c4ccc(Cl)cc4)c4c(sc(C)c4C)-n4c(C)nnc43)NC(=O)CNC2=O)cc1 [Compound 27] ({CH2CO}-[Tle][cisHyp][dPhg(4-(4-Me-thiazol-5-yl))]G[dDap](JQ1acid)[dC]-NH2; thioether N-6)	> 20 µM
